The NIST ThermoML archive (doi:10.1016/j.tca.2018.03.002)
± gives the expanded uncertainty stated by the source.

Details: Crystal; DTA

SMILES | Normal melting temperature [°C]
CC(=O)O [acetic acid] | 16.80 ± 6
CCCC(=O)O [butanoic acid] | -4.50 ± 4
O=CO [formic acid] | 9.70 ± 8

Other lines, results leading:

Normal melting temperature [°C] | SMILES
-21.20 ± 2 | CCC(=O)O [propanoic acid]
0.00 ± 2 | O [water]
